Measurements: US5846934A, “Pure somatostatin antagonist and methods of use thereof” (American Cyanamid Company, priority 1997, dated 1998)
Positions of bridges follow the written chain, without caps; N, C: chain ends. Non-standard residues stand in square brackets, D forms with d. Residues, ends and D or L forms follow the SMILES beside them. Phe(4-NO2) = N[C@@H](Cc1ccc([N+](=O)[O-])cc1)C(=O)O; 2Nal = N[C@@H](Cc1ccc2ccccc2c1)C(=O)O

Key:
[1] = biological target: T1, rat somatostatin receptor subtype 2 (SSTR2) (Rattus norvegicus, UniProt P30680); assay: Yeast assay, somatostatin antagonist activity (zone of no growth in presence of S-14); assay type: cell-based; design: key: 1 is minimum antagonist activity; 5 is maximum antagonist activity; --: When no activity is observed, the result is indicated by a dash; conditions: rating on a scale of 1-5 from zone of no growth; 5 μL of 1 mg/mL S-14 added to each plate
T1 construct: expressed in transfected cells; host or cells: Saccharomyces cerevisiae LY364 bearing pJH2 (SSTR2) and pLP82 (G protein)
Experimental: (§1) In this evaluation, yeast cells which have been specifically modified to functionally express rat somatostatin receptor subtype 2 (SSTR2) on their cell surfaces are used. S. Cerevisiae LY364 cells are plated in a standard synthetic agar medium which lacks histidine. In the absence of a somatostatin receptor agonist, the auxotrophic (his3) cells are unable to grow. In the presence of somatostatin, or a somatostatin agonist, the expression of an enzyme (His3p: imidazole-glycerol phosphate dehydratase) which is essential for histidine biosynthesis is induced. The cells become competent to produce histidine, resulting in a zone of growing cells around the applied test compound. The zone is measured and the test compound is given an agonist rating on a scale of 1-5 wherein 1 is minimum agonist activity and 5 is maximum agonist activity.
To evaluate the somatostatin antagonist activity of a test compound, the above procedure is followed except on day 3, 5 μL of 1 mg/mL of somatostatin, S-14, is added to each plate, before applying the test compound. If the test compound is an antagonist of somatostatin, then a zone of no growth will appear within the cell growth zone. This zone of no growth is measured and the test compound is given an antagonist rating on a scale of 1-5 wherein 1 is minimum antagonist activity and 5 is maximum antagonist activity.
The results are shown in Table I. When no activity is observed, the result is indicated by a dash.
On day 3, add 5 μL 1 mg/mL S-14 to each plate.
(§2) Day 7. Growth in response to somatostatin should be readily observable. Rate extent of growth or inhibition of growth according to rating scale described hereinabove.

[2] = biological target: T2, SSTR2 (Rattus norvegicus, UniProt P30680); assay: Cyclic AMP accumulation, forskalin stimulated, intact cells; assay type: cell-based; conditions: read-out: SSTR^2 % IA (% intrinsic activity)
Text: Cyclic AMP accumulation assays are used to determine the functional coupling of somatostatin receptors to effectors. All five cloned somatostatin receptors inhibit cyclic AMP accumulation and adenylyl cyclone activity.^1,2,3,4,5 This evaluation measures cyclic AMP accumulation from intact cells using the adrenal binding protein method. Signal transduction by somatostatin is mediated by lowering intracellular c-AMP levels. This functional assay measures the ability of the test compound to inhibit the effect of somatostatin on forskalin stimulated c-AMP levels.
Bovine adrenal gland extracts are prepared according to the method of Brown et al^6 with minor modifications. […]
Somatostatin-mediated inhibition of cyclic AMP accumulation is measured in intact cells co-incubated with the diterpene forskalin (5 μM) which activates adenylyl cyclase directly and stimulates cyclic AMP accumulation in cells. […] The cells are counted and the concentration of cells is adjusted to 50,000/70 μl and incubated 15 minutes at room temperature before starting the assay. […]

[3] = biological target: T1, rat somatostatin receptor subtype 2 (SSTR2); assay: Yeast assay, somatostatin agonist activity (zone of growth of modified yeast cells); assay type: cell-based; design: key: 1 is minimum agonist activity; 5 is maximum agonist activity; --: When no activity is observed, the result is indicated by a dash; conditions: rating on a scale of 1-5 from zone of growth; S. cerevisiae LY364 expressing rat SSTR2
Experimental: as §1
1) Inoculate 2 mL SCD-ura-trp liquid medium in Falcon 2051 tube with a single colony taken from a plate containing LY364 (MATa ura3-52 leu2 his3 trp1 lys2 ade2 far1:: LYS2 fus1:: FUS1-HIS3 gpa1::hisG sst2::.ADE2 bearing the SSTR2 expression plasmid, pJH2, and the G protein expression plasmid, pLP82) cells.
3) Add 1 mL of LY364 culture to 1 liter of agar medium.
8) Incubate plates at 30° C.
Day 5. Begin checking plates for growth around applied compounds.
as §2

[4] = biological target: T2, SSTR2; assay: Competitive binding, displacement of [125I]Tyr11 S-14; design: expressed in transfected cells; membrane protein
Experimental: In this evaluation the concentration of test compound required to displace 50% of somatostatin, SRIF, from the SRIF receptor subtypes expressed in mammalian cells is measured, i.e., the concentration required to inhibit 50% of [^125 I] Tyr^11 S-14 (Amersham) (IC50) from binding to the SRIF receptor subtypes.
Radiolabeled SRIF is mixed with pituitary cells, the test compound is added, the mixture is incubated and the radioactivity is measured as compared to control. Reduced radioactivity indicates successful competitive binding of the test compound to the pituitary cell receptor. The concentration of the test compound in nanomolar units required to displace 50% of SRIF from the pituitary cell receptor is calculated and reported in Table II as the IC50 value. Also calculated is the inhibitory constant, Ki.
Tyr^11 S-14 (150,000 cpm at 2000 Ci/mmole, 250 pM final concentration). The binding reaction is initiated by adding 2-60 μg of membrane protein in a 170 μL volume. Final reaction volume is 200 μl/well. All incubations are carried out at room temperature for 2 hours. Free radioligand is separated from bound ligand by rapid filtration through a glass fiber filter (IH-201-HA) using an Inotech cell harvester. The filter is then washed several times with cold (4° C.) binding buffer lacking BSA and protease inhibitors prior to counting in an LKB gamma master counter (78% efficiency). Whatman GFC filters presoaked in 0.3% polyethylenimine (to decrease background) are used.
The IC50 values and Ki values are calculated using the well-known methods described by Y. Cheng and W. H. Prusoff, Biochem. Pharmacol. 22, 3099-3108 (1973), incorporated herein by reference thereto.

T2 sequence (P30680 whole entry): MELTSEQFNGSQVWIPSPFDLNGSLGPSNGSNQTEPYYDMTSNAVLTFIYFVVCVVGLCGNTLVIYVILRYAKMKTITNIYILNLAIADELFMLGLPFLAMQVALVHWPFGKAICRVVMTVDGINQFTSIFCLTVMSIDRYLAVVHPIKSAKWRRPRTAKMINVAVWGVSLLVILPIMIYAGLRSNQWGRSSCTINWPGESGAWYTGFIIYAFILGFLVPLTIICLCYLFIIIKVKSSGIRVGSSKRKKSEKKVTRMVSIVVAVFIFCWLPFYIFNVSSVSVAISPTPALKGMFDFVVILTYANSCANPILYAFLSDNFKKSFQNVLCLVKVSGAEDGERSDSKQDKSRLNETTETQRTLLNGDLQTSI
T1 sequence (P30680 whole entry): as above

| Compound | Yeast Assay Antagonist [1] | Emax [2] [%] | Yeast Assay Agonist [3] | Ki ([4]; calculated by method of Cheng and Prusoff, read-out: SSTR2 Binding Affinity Ki) [pM] | IC50 ([4]; displacement of [125I]Tyr11 S-14, 250 pM, room temperature, 2 hours, read-out: SSTR2 Binding Affinity IC50) [pM] |
| --- | --- | --- | --- | --- | --- |
| C[C@@H](O)[C@@H]1NC(=O)[C@H](CCCCN)NC(=O)[C@@H](Cc2c[nH]c3ccccc23)NC(=O)[C@H](Cc2ccc(O)cc2)NC(=O)[C@H](NC(=O)[C@@H](N)Cc2ccc(I)cc2)CSSC[C@@H](C(=O)N[C@@H](Cc2ccc(O)cc2)C(N)=O)NC1=O [4-IPhe Tyr Lys Thr Tyr] | 5 | -12 | -- |  |  |
| NCCCC[C@@H]1NC(=O)[C@@H](Cc2c[nH]c3ccccc23)NC(=O)[C@H](Cc2ccc(O)cc2)NC(=O)[C@H](NC(=O)[C@@H](N)Cc2ccc([N+](=O)[O-])cc2)CSSC[C@@H](C(=O)N[C@@H](Cc2ccc3ccccc3c2)C(N)=O)NC(=O)[C@H](CO)NC1=O [4-NO2 Phe Tyr Lys Ser Nal(2)] (H-[Phe(4-NO2)][dC]Y[dW]KSC[2Nal]-NH2; disulfide 2-7 (inferred); N-terminus and C-terminus assumed) | 3 | 7 | -- |  |  |
| CC(=O)N[C@@H](Cc1ccc([N+](=O)[O-])cc1)C(=O)N[C@@H]1CSSC[C@@H](C(=O)N[C@H](Cc2ccc(O)cc2)C(N)=O)NC(=O)[C@H]([C@@H](C)O)NC(=O)[C@H](CCCCN)NC(=O)[C@@H](Cc2c[nH]c3ccccc23)NC(=O)[C@H](Cc2ccc(O)cc2)NC1=O [Ac-4-NO2 Phe Tyr Lys Thr D-Tyr] | 4 |  | -- | 300 | 700 |
